The results in this text go back to US20230201168A1, “NEW THERAPY FOR THE TREATMENT OF TUMORS” (Università degli Studi di Trento, priority 2020, published 2023).

Test [1] concerns COMI cells. The test is described as follows: Viability assay (Hoechst 33342/PI), COMI cells. The class given is cell-based. Particulars: Homo sapiens, 48 h, mean±SD. Here is the method: (§1) For the evaluation of the effect of Q/D, streptogramins A analogues (alone or in combination with Q) and TMZ on GSCs viability, cells were seeded into 96-well laminin-coated microtiter plates in 150 μL of media. The plates were incubated for 24 h prior to drug treatment. Serial drug dilutions were prepared in PBS to provide a total of seven drug concentrations plus control. 10 μL of these dilutions were added to each well, and the plates were incubated for additional 48 h. Each treatment was performed in technical quadruplicate. After the drug treatments, the cells were stained with Hoechst 33342 (1 μg/mL; Thermo Fisher Scientific, cat. H1399) and Propidium Iodide (PI, 1 μg/mL; Sigma Aldrich, cat. P4170) and incubated for 20 min shaking in the dark. The plates were then read using Operetta-High Content Imaging System (Perkin Elmer) and analyzed using the Harmony Software. The number of viable cells was calculated by subtracting PI positive cells from the total number of cells estimated by Hoechst 33342 staining and normalized on the non treated control.
(§2) Dose-response curves were plotted and growth inhibition 50 (GI50) values calculated using the GraphPad Prism software.

For test [2], the system named is VIPI cells. The test is described as follows: Viability assay (Hoechst 33342/PI), VIPI cells. The test is classed as cell-based. The following applies: Homo sapiens, 48 h, mean±SD. Here is the method: as §1, §2

For `Cn1nnc2c(C(N)=O)ncn2c1=O` [TMZ, temozolomide], the GI50 – broadly, the concentration at which growth is held to half of that of the control – stood at 96.5 ± 15.2 µM in test [1] and 338 ± 35.5 µM in test [2].
